Data as given in patent US11840551B2, “Compositions and methods of modulating the immune response by activating alpha protein kinase 1” (Shanghai Yao Yuan Biotechnology Co., Ltd., priority 2017, dated 2023).

Assays:
CT26 cells [1] = assay: CT26 tumor xenograft model, tumor growth (tumor volume); type: in vivo, BALB/c mice
Protocol: We used a CT26 tumor xenograft model to test the anti-cancer activity of H1b-ADP. Tumor cells (2×10^5 per 100 uL CT26 cells) were inoculated subcutaneously into the right flank of BALB/c mice. At day 6, mice whose tumors had reached 3-5 mm in diameter were randomized and grouped into three groups (n=8 each group), control, HMP-1bP (580 ug), and H1b-ADP (1.2 ug). Injections were performed using a total volume of 20 uL at days 6, 8, 10, 12, and 14 post inoculation. Tumor volumes were calculated every 2 days from caliper measurements of tumor dimension using the formula (L×W^2)/2, where L is the longer measurement.
To test whether H1b-ADP could augment an anti-tumor response by a checkpoint inhibitor, we tested the effects of co-administration with an anti-PD1 antibody. Tumor cells (2×10^5 per 100 μL CT26 cells) were inoculated subcutaneously into the left and right flanks of BALB/c mice. At day 7, mice whose tumors had reached 5 mm in diameter were randomized and grouped (n=8 each group) into the following four groups: anti-PD1 antibody; rat IgG; H1b-ADP+rat IgG; H1b-ADP+anti-PD1 antibody. We utilized RMP1-14 as the anti-PD1 antibody (10 mg/kg) and a rat IgG 2a (2A3) as the control IgG. Each of the anti-PD-1 antibody and the control IgG was administered intraperitoneally in a 200 μL volume on days 6, 10, 12, and 17 post-inoculation. H1b-ADP (6.2 μg) was intratumorally injected in a 20 μL volume at day 6, 8, 10, 12, and 15. Tumor volumes were calculated every 2 days from caliper measurements of tumor dimensions using the formula (L×W^2)/2, where L is the longer measurement. The results are shown in FIG. 13A for injected tumors and FIG. 13B for distant tumors. […]
The experiment was carried out as combo experiments of anti-PD1 except for the following variations. At day 6, mice whose tumors had reached 5 mm in diameter were randomized and grouped into the following four groups: anti-CTLA-4 antibody; rat IgG; H1b-ADP+rat IgG; H1b-ADP+anti-CTLA-4 antibody. We utilized 9D9 (BioxCell) as the anti-CTLA-4 antibody and a rat IgG 2b isotype (MPC-11 clone, BE0086, BioXCell) as the control IgG. Each of the anti-CTLA-4 antibody (25 μg) and the control IgG (25 μg) was administered intraperitoneally in a 200 μL volume on days 6 and 9 post-inoculation. H1b-ADP (6.2 μg) was administered intratumorally in a 20 μL volume on days 6, 7, 9, 11 post-inoculation.
The experiment was carried out as combo experiments of anti-PD1 except for the following variations. At day 6, mice whose tumors had reached 5 mm in diameter were randomized and grouped into the following four groups: c-di-AM(PS)2; PBS; H1b-ADP; H1b-ADP+c-di-AM(PS)2. We utilized c-di-AM(PS)2 as the STING agonist. […]

CT26 cells [2] = assay: mRNA expression in CT26 tumor tissue after intratumoral injection (qPCR); type: in vivo, BALB/c mice; conditions: H1b-ADP 2.5 μg, 250 ng, 50 ng intratumoral, 4 hours post-injection
Protocol: We next asked whether H1b-ADP caused an increase in pro-inflammatory cytokines within the tumor. Tumor cells (2×10^5 per 100 μL CT26 cells) were inoculated subcutaneously into the right flank of BALB/c mice. 2.5 μg (n=2), 250 ng (n=2), 50 ng (n=2) of H1b-ADP or control (n=2) was intratumorally injected (20 uL) at day 7 post inoculation. 4 hours post-injection, tumor issues were dissected and harvested. Total RNA was isolated (TRIzol™, ThermoFisher) and cDNA was synthesized (PrimeScript™ RT reagent Kit, Takara) and amplified (AceQ™ qPCR SYBR™ Green Master Mix, Vazyme Biotech using a QuantStudio™ 7 Flex Real-Time PCR Systems (ThermoFisher) according to manufacturers' protocols.

[3] = test system: phosphatase activity in the serum; assay: Incubation of H1b-ADP with FBS, product analysed by LC-MS; type: in vitro ADME, bovine; conditions: increasing incubation time, LC-MS; product determined to be AMP
Source text: FBS contains 110-352 μU/ml alkaline phosphatase.

[4] = test system: mouse bone marrow-derived macrophages; assay: Cxcl1 mRNA expression in bone marrow-derived macrophages (qPCR); type: cell-based; conditions: 0.4 nM or 2 nM H1b-ADP, 2.5 hours
Protocol: In these experiments, mouse bone marrow-derived macrophages were treated with 0.4 nM or 2 nM H1b-ADP for 2.5 hours and harvested for mRNA expression analysis of Cxcl1 by qPCR. […] Accordingly, very low doses of H1b-ADP, or an agonist thereof, may be used to enhance or potentiate an immune response in a local tissue.

ALPK1 = ALPK1 (Homo sapiens, UniProt Q96QP1); assay: IL8 secretion in HEK293 cells (IL8 ELISA) as indicator of ALPK1 activation; conditions: cells cultured with fetal bovine, human or mouse serum
ALPK1, sequence (Q96QP1 whole entry): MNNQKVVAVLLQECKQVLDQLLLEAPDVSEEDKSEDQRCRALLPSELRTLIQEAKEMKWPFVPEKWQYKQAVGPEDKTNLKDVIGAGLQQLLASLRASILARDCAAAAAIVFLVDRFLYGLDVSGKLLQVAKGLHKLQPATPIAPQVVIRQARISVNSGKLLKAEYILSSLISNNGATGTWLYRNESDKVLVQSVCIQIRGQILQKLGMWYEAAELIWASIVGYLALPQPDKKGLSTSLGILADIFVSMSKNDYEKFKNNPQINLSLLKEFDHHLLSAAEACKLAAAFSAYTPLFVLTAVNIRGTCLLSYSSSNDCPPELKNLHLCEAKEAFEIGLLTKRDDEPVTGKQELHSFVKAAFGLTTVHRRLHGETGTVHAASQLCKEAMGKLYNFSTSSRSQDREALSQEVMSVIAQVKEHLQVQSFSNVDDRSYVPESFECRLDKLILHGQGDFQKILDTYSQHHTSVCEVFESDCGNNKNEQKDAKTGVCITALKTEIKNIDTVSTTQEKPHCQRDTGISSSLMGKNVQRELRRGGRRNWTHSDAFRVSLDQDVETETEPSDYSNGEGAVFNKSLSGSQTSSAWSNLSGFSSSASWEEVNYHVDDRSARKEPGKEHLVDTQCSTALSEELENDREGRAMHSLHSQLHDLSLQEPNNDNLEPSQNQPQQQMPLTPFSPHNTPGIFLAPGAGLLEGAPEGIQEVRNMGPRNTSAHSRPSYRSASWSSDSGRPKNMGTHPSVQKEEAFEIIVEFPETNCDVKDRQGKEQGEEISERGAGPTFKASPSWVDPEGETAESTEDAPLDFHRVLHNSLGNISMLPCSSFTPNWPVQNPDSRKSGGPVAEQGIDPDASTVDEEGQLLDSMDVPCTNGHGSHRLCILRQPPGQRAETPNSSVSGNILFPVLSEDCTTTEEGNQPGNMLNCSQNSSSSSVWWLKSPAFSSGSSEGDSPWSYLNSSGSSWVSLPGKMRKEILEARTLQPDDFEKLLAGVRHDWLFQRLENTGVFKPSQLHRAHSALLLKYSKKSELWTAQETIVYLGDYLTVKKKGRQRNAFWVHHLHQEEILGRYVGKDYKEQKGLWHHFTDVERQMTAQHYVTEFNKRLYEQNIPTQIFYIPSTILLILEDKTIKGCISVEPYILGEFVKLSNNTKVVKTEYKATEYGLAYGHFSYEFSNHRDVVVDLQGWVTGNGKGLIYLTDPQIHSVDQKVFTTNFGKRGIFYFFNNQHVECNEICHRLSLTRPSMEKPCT
Protocol: Phosphatase such as the alkaline phosphatase may be responsible for H1b-ADP hydrolysis. We pre-mixed H1b-ADP with phosphatase inhibitor sodium orthovanadate (Na3VO4) before incubation with FBS. […] We hypothesized that the accumulation of hydrolysis product AMP can inhibit phosphatase activity.
A number of H1b-ADP derivative compounds were made as described herein and tested for biological activity as agonists of ALPK1 in vitro. In these experiments, serial dilutions of the compounds were added to the tissue culture media of HEK293 cells with (FIG. 27B, FIG. 28B, FIG. 29B) or without (FIG. 26, FIG. 27A, FIG. 28A, FIG. 29A) 10% FBS, as indicated in the figures. After 4 hours, the cell supernatant was collected and analyzed for IL8 concentration using IL8 ELISA (BD) as an indicator of ALPK1 activation.

Row | SMILES | tumor growth (CT26 cells [1]; Example 7, H1b-ADP 6.2 μg intratumoral, anti-PD1 antibody 10 mg/kg intraperitoneal, injected and distant tumors) | PD-1 and PD-L1 expression in tumor (CT26 cells [2]) | mRNA expression of CD8, CD4, Foxp3 and T-bet in tumor (CT26 cells [2]) | mRNA expression of inflammatory cytokine IL-1b, Tnfa, Ifn gamma, and IL-6, and chemokine Cxcl1 in tumor (CT26 cells [2]) | H1b-ADP amount on incubation with FBS [3] | Cxcl1 mRNA expression, fold change over non-treated control [4] | H1b-ADP's activity to activate ALPK1 in HEK293 cells (IL8 secretion) (ALPK1) | tumor growth (CT26 cells [1]; intratumoral, days 6, 8, 10, 12, 14, HMP-1bP 580 ug, H1b-ADP 1.2 ug)
1 | Nc1ncnc2c1ncn2[C@@H]1O[C@H](COP(=O)(O)OP(=O)(O)O[C@@H]2O[C@H]([C@H](O)CO)[C@@H](O)[C@H](O)[C@@H]2O)[C@@H](O)[C@H]1O [Compound H1b-ADP, D-glycero-D-manno-heptose-1β-ADP] | markedly suppressed tumor growth | increased in H1b-ADP injected tumor | increased upon H1b-ADP injection | increased upon H1b-ADP injection | the H1b-ADP amount declined | showed a dose-dependent response | greatly declined | 
2 | O=P(O)(O)O[C@@H]1O[C@H]([C@H](O)CO)[C@@H](O)[C@H](O)[C@@H]1O [HMP-1bP, D-glycero-β-D-manno-heptose-1-phosphate] |  |  |  |  |  |  |  | but not HMP-1bP, reduced tumor growth
